Several values for one entry are separate records, joined by “and”; a condition that tells them apart may be missing. Identical values can stand only once.
Legend:
COS Cell = COS Cell IC50 (Cell-Based Assay); details: COS cells
Experimental: (§1) FPT IC50 (inhibition of farnesyl protein transferase, in vitro enzyme assay) and COS Cell IC50 (Cell-Based Assay) were determined following the assay procedures described in WO 95/10516, published Apr. 20, 1995. GGPT IC50 (inhibition of geranylgeranyl protein transferase, in vitro enzyme assay), Cell Mat Assay, and anti-tumor activity (in vivo anti-tumor studies) could be determined by the assay procedures described in WO 95/10516. The disclosure of WO 95/10516 is incorporated herein by reference thereto.

Human tumor cells = assay: Soft Agar Assay (anchorage-independent growth of human tumor cells); assay type: cell-based; details: 10-16 days at 37° C., 5% CO2, MTT stain
Experimental: Soft Agar Assay: Anchorage-independent growth is a characteristic of tumorigenic cell lines. Human tumor cells are suspended in growth medium containing 0.3% agarose and an indicated concentration of a farnesyl transferase inhibitor. The solution is overlayed onto growth medium solidified with 0.6% agarose containing the same concentration of farnesyl transferase inhibitor as the top layer. After the top layer is solidified, plates are incubated for 10-16 days at 37° C. under 5% CO2 to allow colony outgrowth. […] Colonies can be counted and the IC50 's can be determined.

[1] = target: T1, farnesyl protein transferase (Homo sapiens, UniProt P49354+P49356); assay: FPT inhibition, in vitro enzyme assay (H-ras); assay type: biochemical
T1 sequence (P49356 whole entry, one chain of several): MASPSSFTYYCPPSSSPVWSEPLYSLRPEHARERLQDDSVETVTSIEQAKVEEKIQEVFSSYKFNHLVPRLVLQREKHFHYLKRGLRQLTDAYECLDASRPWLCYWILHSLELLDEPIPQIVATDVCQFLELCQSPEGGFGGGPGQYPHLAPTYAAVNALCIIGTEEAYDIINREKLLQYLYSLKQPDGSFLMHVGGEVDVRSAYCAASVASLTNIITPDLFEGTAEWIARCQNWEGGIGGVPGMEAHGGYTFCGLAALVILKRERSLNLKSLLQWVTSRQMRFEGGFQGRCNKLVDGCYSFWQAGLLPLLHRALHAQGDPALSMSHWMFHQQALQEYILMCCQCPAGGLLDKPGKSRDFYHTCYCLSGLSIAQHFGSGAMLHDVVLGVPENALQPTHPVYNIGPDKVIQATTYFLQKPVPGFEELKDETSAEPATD
Experimental: as §1

[2] = target: T1, farnesyl protein transferase; assay: FPT inhibition, in vitro enzyme assay (K-ras); assay type: biochemical
Experimental: as §1

## CCS(=O)(=O)N1CCC(CC(=O)N2CCC([C@H]3c4ncc(Br)cc4CCc4cc(Cl)cc(Br)c43)CC2)CC1 [Example 6]
COS Cell
  IC50: 12 nM
Human tumor cells
  IC50: 100 nM
[1]
  IC50: 3.7 nM
[2]
  IC50: 16.4 nM

## CCCS(=O)(=O)N1CCC(CC(=O)N2CCC([C@H]3c4ncc(Br)cc4CCc4cc(Cl)cc(Br)c43)CC2)CC1 [Example 7]
[1]
  IC50: 5 nM
[2]
  IC50: 14.2 nM

## CC(C)S(=O)(=O)N1CCC(CC(=O)N2CCC([C@H]3c4ncc(Br)cc4CCc4cc(Cl)cc(Br)c43)CC2)CC1 [Example 8]
[1]
  IC50: 5.8 nM
[2]
  IC50: 22.9 nM

## O=C(CC1CCN(S(=O)(=O)Cc2ccccc2)CC1)N1CCC([C@H]2c3ncc(Br)cc3CCc3cc(Cl)cc(Br)c32)CC1 [Example 9]
[1]
  IC50: 17.5 nM and 8 nM

## CC1(C)[C@@H]2CC[C@@]1(CS(=O)(=O)N1CCC(CC(=O)N3CCC([C@H]4c5ncc(Br)cc5CCc5cc(Cl)cc(Br)c54)CC3)CC1)C(=O)C2 [Example 10]
[1]
  IC50: 34.1 nM
[2]
  IC50: 52.5 nM

## O=C(CC1CCN(S(=O)(=O)c2cccs2)CC1)N1CCC([C@H]2c3ncc(Br)cc3CCc3cc(Cl)cc(Br)c32)CC1 [Example 13]
COS Cell
  IC50: 50 nM
Human tumor cells
  IC50: > 250 nM

## Cn1cnc(S(=O)(=O)N2CCC(CC(=O)N3CCC([C@H]4c5ncc(Br)cc5CCc5cc(Cl)cc(Br)c54)CC3)CC2)c1 [Example 14]
COS Cell
  IC50: 400 nM

— patent US5945429A, “Compounds useful for inhibition of farnesyl protein transferase” (Schering Corporation, priority 1997, dated 1999)
